Experimental data taken from patent publication US20160137639A1, “TRIAZOLE-ISOXAZOLE COMPOUND AND MEDICAL USE THEREOF” (JAPAN TOBACCO INC., priority 2012, published 2016).
pEC50: −log10 of the molar value. Like-named read-outs stand apart in the source and are kept apart here.

Experiments:
mouse RORγ = target: T1, mouse RORγ (Mus musculus, UniProt P51450); assay: Luciferase reporter gene assay of inhibitory effect against RORγ transcriptional activity (GAL4-mRORγ plasmid in CHO cells); format: cell-based; settings: for pEC50: read-out: LUC EC50 mRORg; for EC50: read-out: LUC EC50 (μM) mRORg
T1 construct: mouse, NM_011281.2 and from Ile251 to Lys516; expressed in transfected cells; host or cells: CHO cells (transient co-transfection with pG5-Luc reporter)
T1 sequence (P51450 251-516): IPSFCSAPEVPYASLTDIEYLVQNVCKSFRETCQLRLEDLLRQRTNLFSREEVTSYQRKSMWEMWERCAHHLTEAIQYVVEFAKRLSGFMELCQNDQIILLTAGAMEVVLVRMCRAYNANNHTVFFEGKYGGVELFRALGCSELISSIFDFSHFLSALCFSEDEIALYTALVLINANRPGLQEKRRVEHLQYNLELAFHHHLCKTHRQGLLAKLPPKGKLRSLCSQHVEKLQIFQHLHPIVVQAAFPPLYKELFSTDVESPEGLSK
Summary of the method: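 CHO cells transiently co-transfected with GAL4-mouse RORγ LBD (Ile251–Lys516) and GAL4-dependent luciferase reporter; eight compound concentrations, 0.1% DMSO, 2 days at 37 °C. Luminescence as %-of-vehicle control; EC50 by curve fit, cytotoxic concentrations excluded.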

human RORγ = target: T2, human RORγ (Homo sapiens, UniProt P51449); assay: Luciferase reporter gene assay of inhibitory effect against RORγ transcriptional activity (GAL4-hRORγ plasmid in CHO cells); format: cell-based; settings: for pEC50: read-out: LUC EC50 hRORg; for EC50: read-out: LUC EC50 (μM) hRORg
T2 construct: human, NM_005060.3 and from Ser253 to Lys518; expressed in transfected cells; host or cells: CHO cells (transient co-transfection with pG5-Luc reporter)
T2 sequence (P51449 253-518): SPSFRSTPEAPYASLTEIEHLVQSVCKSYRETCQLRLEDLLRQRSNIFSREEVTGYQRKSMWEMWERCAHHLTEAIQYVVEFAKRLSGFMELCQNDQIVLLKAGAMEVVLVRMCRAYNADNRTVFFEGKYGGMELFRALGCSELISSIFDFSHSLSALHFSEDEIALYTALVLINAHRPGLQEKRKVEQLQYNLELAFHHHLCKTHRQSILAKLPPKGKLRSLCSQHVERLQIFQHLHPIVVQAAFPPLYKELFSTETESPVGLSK

| SMILES | pEC50 (mouse RORγ) | pEC50 (human RORγ) | EC50 (mouse RORγ) [µM] | EC50 (human RORγ) [µM] |
| --- | --- | --- | --- | --- |
| Cc1ccc(NC(=O)[C@H]2CN(S(=O)(=O)C(F)(F)F)C[C@@H]2c2nnc(-c3cc(CC(C)C)on3)n2C2CC2)c(C)c1 [Example F-547] | > 5.52 | > 5.52 |  |  |
| CCn1c(CCC(=O)NCc2ccccc2)nnc1CCC1CCCCC1 [Example F-45] |  |  | > 3 | > 3 |
| CC(=O)N1C[C@H](C(=O)Nc2cccc(Cl)c2C)[C@@H](c2nnc(CCC(C)C)n2C2CC2)C1 (racemic) [Example F-145] |  |  | < 3 | < 3 |
| CCn1c(CCC(=O)Nc2ccc(Cl)cc2Cl)nnc1C1Cc2ccccc2C1 [Example F-31] |  |  | > 3 | > 3 |
| Cc1ccc(NC(=O)C[C@H](CCC(=O)O)c2nnc([C@H]3C[C@@H](CC(C)(C)C(C)C)C3)n2C2CC2)c(Cl)c1 [Example F-708] | > 5.52 | > 5.52 |  |  |
| Cc1c(F)cccc1NC(=O)C[C@H](CCO)c1nnc([C@H]2C[C@@H](CC(F)(F)F)C2)n1C1CC1 [Example F-589] | < 5.52 | < 5.52 |  |  |
| CC(=O)N1C[C@H](C(=O)Nc2ccc(C)cc2C)[C@@H](c2nnc(-c3cc(C(C)C)on3)n2C2CC2)C1 (racemic) [Example F-350] |  |  | < 3 | < 3 |
| Cc1ccc(NC(=O)C[C@H](CCC(=O)O)c2noc(-c3cc(CCC(C)C)on3)c2C(F)(F)F)c(Cl)c1 [Example E-16] |  |  | < 3 | < 3 |
| Cc1c(Cl)cccc1NC(=O)CCc1nnc(CCOC(C)(C)C(F)(F)F)n1C1CC1 [Example F-304] |  |  | < 3 | < 3 |
| CCOC(=O)/C=C/c1c(CCC(=O)Nc2ccc(C)cc2C)noc1[C@H]1C[C@@H](CC(C)C)C1 [Example F-645] | < 5.52 | < 5.52 |  |  |
| Cc1ccc(NC(=O)[C@H]2CC(CO)C[C@@H]2c2nnc([C@H]3C[C@@H](CC(C)C)C3)n2C2CC2)c(C)c1 (single isomer, unassigned) [Example F-512] | > 5.52 | > 5.52 |  |  |
| Cc1ccc(CCNC(=O)CCc2nnc(CCC(C)C)n2C2CC2)cc1 [Example F-67] |  |  | > 3 | > 3 |
| Cc1ccc(NC(=O)[C@@H](CCC(=O)O)Cc2noc([C@H]3C[C@@H](CC(C)C)C3)c2C2CC2)c(C)c1 [Example F-671] | > 5.52 | > 5.52 |  |  |
| CC(=O)N(CCc1nnc(CCC(=O)Nc2cccc(Cl)c2C)n1C1CC1)C(C)C [Example F-233] |  |  | > 3 | > 3 |
| COc1cc(C)ccc1CNC(=O)CCc1nnc(CC[C@H]2CC[C@H](C(F)(F)F)CC2)n1C1CC1 [Example F-251] |  |  | < 3 | < 3 |
| Cc1ccc(NC(=O)[C@H]2CN(C)C[C@@H]2c2nnc([C@H]3C[C@@H](CC(C)(C)C)C3)n2C2CC2)c(C)c1 [Example F-549] | > 5.52 | > 5.52 |  |  |
| Cc1ccc(NC(=O)C[C@H](OCc2ccccc2)c2nnc([C@H]3C[C@@H](CC(C)C)C3)n2C2CC2)c(C)c1 [Example F-581] | > 5.52 | > 5.52 |  |  |
| Cc1c(Cl)cccc1NC(=O)CCc1nnc([C@H]2CC[C@H](C(C)C)CC2)n1C1CC1 [Example F-280] |  |  | < 3 | < 3 |
| Cc1ccc(Br)cc1NC(=O)CCc1nnc(CCC(C)C)n1C1CC1 [Example F-140] |  |  | > 3 | > 3 |
| Cc1ccc(NC(=O)C[C@H](CC(=O)O)c2noc(-c3cc(C(F)(F)C(C)(C)C)on3)c2C2CC2)c(Cl)c1 [Example E-53, Sodium (R)-4-(2-chloro-4-methyl-phenylcarbamoyl)-3-[4′-cyclopropyl-5-(1,1-difluoro-2,2-dimethylpropyl)-[3,5′]biisoxazolyl-3′-yl]-butyrate] |  |  | < 3 | < 3 |
| Cc1ccc(NC(=O)C[C@H](CCCO)c2noc([C@H]3C[C@@H](CC(C)(C)C)C3)c2C2CC2)c(Cl)c1 [Example F-672] | > 5.52 | > 5.52 |  |  |

| SMILES | pEC50 (mouse RORγ) | pEC50 (human RORγ) | EC50 (mouse RORγ) [µM] | EC50 (human RORγ) [µM] |
| --- | --- | --- | --- | --- |
| Cc1ccc(C(N)=O)cc1NC(=O)CCc1nnc(CCC(C)C)n1C1CC1 [Example F-154] |  |  | > 3 | > 3 |
| CCOC(=O)CCc1nnc(CCC(=O)Nc2cccc(Cl)c2C)n1C1CC1 [Example F-183] |  |  | > 3 | > 3 |
| COc1cc(C)c(Cl)cc1CNC(=O)CCc1nnc(CCC(C)C)n1C1CC1 [Example F-204] |  |  | > 3 | > 3 |
| Cc1cc(F)ccc1NC(=O)C[C@H](OC(C)C)c1nnc(-c2cc(CC(C)C)on2)n1C1CC1 [Example F-576] | > 5.52 | > 5.52 |  |  |
| Cc1c(Br)cccc1NC(=O)CCc1nnc(CCC(C)C)n1C1CC1 [Example F-84] |  |  | < 3 | < 3 |
| Cc1ccc(NC(=O)CC(c2nnc(CCCC(C)(C)C)n2C2CC2)C(C)C)c(C)c1 (racemic) [Example F-453] |  |  | < 3 | < 3 |
| CCOC(=O)CCc1c(CCC(=O)Nc2ccc(C)cc2C)noc1[C@H]1C[C@@H](CC(C)C)C1 [Example F-663] | < 5.52 | < 5.52 |  |  |
| Cc1ccc(NC(=O)C[C@H](CCC(=O)O)c2noc(-c3cc(CC(C)C)[nH]n3)c2C2CC2)c(F)c1 [Example E-07] |  |  | > 3 | > 3 |
| Cc1ccc(NC(=O)C[C@H](CCC(=O)O)c2noc3c2CCCC3CCC(C)C)c(Cl)c1 (single isomer, unassigned) [Example F-698] | > 5.52 | > 5.52 |  |  |
| C=CCC(CC(=O)Nc1ccc(C)cc1C)c1nnc(C(F)(F)CCC(C)(C)C)n1C1CC1 (racemic) [Example F-376] |  |  | < 3 | < 3 |
| CCN(CC)C(=O)CN1C[C@H](C(=O)Nc2ccc(C)cc2C)[C@@H](c2nnc([C@H]3C[C@@H](CC(C)C)C3)n2C2CC2)C1 [Example F-653] | > 5.52 | > 5.52 |  |  |
| CCn1c(CCC(=O)NCc2ccccc2C)nnc1CCC1CCCCC1 [Example F-41] |  |  | < 3 | < 3 |
| CC(C)CCc1nnc(CCC(=O)NCc2ccccc2C(F)(F)F)n1C1CC1 [Example F-130] |  |  | > 3 | > 3 |
| Cc1ccc(NC(=O)C[C@@H](c2nnc([C@H]3C[C@@H](CC(C)C)C3)n2C2CC2)N(C)CCO)c(C)c1 [Example F-544] | > 5.52 | > 5.52 |  |  |
| Cc1ccc(NC(=O)C[C@@H](c2nnc([C@H]3C[C@@H](CC(C)C)C3)n2C2CC2)N(C)C(=O)C(C)C)c(C)c1 [Example F-530] | > 5.52 | > 5.52 |  |  |
| Cc1cc(Cl)ccc1NC(=O)C[C@H](OCC(F)(F)F)c1nnc(-c2cc(CC(C)C)on2)n1C1CC1 [Example F-630] | > 5.52 | > 5.52 |  |  |
| Cc1ccc(NC(=O)C[C@H](CCO)c2nnc(C3CC4(CCC(F)(F)CC4)C3)n2C2CC2)c(C)c1 [Example F-619] | > 5.52 | > 5.52 |  |  |
| Cc1ccc(NC(=O)[C@H]2CN(S(=O)(=O)C(F)F)C[C@@H]2c2nnc([C@H]3C[C@@H](CC(C)(C)C)C3)n2C2CC2)c(C)c1 [Example F-550] | > 5.52 | > 5.52 |  |  |
| COC1C[C@@H](C(=O)Nc2ccc(C)cc2C)[C@H](c2nnc([C@H]3C[C@@H](CC(C)C)C3)n2C2CC2)C1 (single isomer, unassigned) [Example F-557] | < 5.52 | < 5.52 |  |  |
| Cc1cc(Cl)ccc1NC(=O)C[C@H](CCC(=O)O)c1noc(-c2cc(CCC(C)(C)C)on2)c1C1CC1 [Example E-38] |  |  | < 3 | < 3 |
| Cc1ccc(NC(=O)[C@H]2CC(N(C)C(C)C)C[C@@H]2c2nnc([C@H]3C[C@@H](CC(C)C)C3)n2C2CC2)c(C)c1 (single isomer, unassigned) [Example F-539] | > 5.52 | < 5.52 |  |  |
